Experimental data: US20100062464A1, “OXIDATIVE CHROMOGENIC COMPOUND OR SALT THEREOF AND PRODUCTION METHOD THEREOF, AND REAGENT COMPOSITION AND TEST INSTRUMENT USING THE SAME” (Terumo Kabushiki Kaisha, priority 2007, published 2010)

Experiments:
[1] = Maximum concentration of coating liquid for measuring glucose (solubility of coupler)
Experimental: As an example of a coating liquid composition for measuring glucose, an experiment was conducted to determine a maximum concentration of a coating liquid.
Basic Composition (in 100 mL Water)

[2] = Residual ratio of coupler in test piece after thermal acceleration, HPLC (Example 9); format: physicochemical; conditions: 60° C., 1 hour, oven under vacuum; relative to test piece before thermal acceleration; HPLC 254 nm; FIG. 5
Experimental: Using a coating liquid having a composition shown in the following Table 6, a polyether sulfone membrane (membrane thickness: 130 μm) manufactured by Terumo Corporation was coated by Kiss-Coat method, and dried for 18 hours at 37° C. Then, the membrane was punched out to give a circle of φ6 mm as a test piece.
The test piece was placed in an oven under vacuum at 60° C. for 1 hour to be subjected to thermal acceleration. Then, the test piece was subjected to ultrasonic treatment for 10 minutes using 1 ml of an aqueous 60% acetonitrile solution, and extracted. The amount of reagent in the resultant extract was determined by HPLC under such conditions as of eluent: 60% of acetonitrile/50 mM of phosphate buffer (pH 7.5), eluent flow rate: 1 mL/minute, column temperature: 40° C., column: Hydrosphere C18 250×4.6 mm (manufactured by YMC Co., Ltd.), measuring wavelength: 254 nm, and injection volume: 20 μL. According to this method, the residual ratios of 4-AA and CP2 contained in the test piece after thermal acceleration were respectively compared with those of the test pieces before thermal acceleration. It is noted from the results shown in FIG. 5 that the residual ratio of 4-AA is not more than 70%, while the residual ratio of CP2 is approximately 100%. […]

[3] = Time-dependent change in reflection-absorbance of test piece (Example 7); conditions: test piece with MAOS, succinate buffer pH 5.0; human blood, hematocrit 40%, 400 mg/dL blood glucose; FIG. 3
Experimental: Using a coating liquid having a composition shown in the following Table 5, a polyether sulfone membrane (membrane thickness: 130 μm) manufactured by Terumo Corporation was coated by Kiss-Coat method, and dried for 18 hours at 37° C. Then, the membrane was cut to give a 1-cm square as a test piece.
The evaluation using blood was conducted by fixing the test piece in a reflectance spectrophotometer, adding 1 μL of specimen dropwise onto the test membrane from above, and measuring reflection-absorbance continuously or at the predetermined time.
The time-dependent changes in the reflection-absorbance was measured using as a coupler compound 4-amino antyprine (4-AA), CP1 or CP2, the test piece prepared by the above method, and human blood adjusted to 40% of hematocrit level and 400 mg/dL of blood glucose level as specimen. It is noted from the results shown in FIG. 3 that 15 seconds was required for reflection-absorbance to become steady when using 4-AA, a conventional coupler, while less than 5 seconds was required for reflection-absorbance to become steady when using CP1, and particularly when using CP2, reflection-absorbance reached peak within only about 3 seconds. That is, it was observed that a measuring time was able to be shortened by using the reagent composition of the present invention.

Compound | Solubility as compared with 4-aminoantipyrine [1] | Solubility of coupler ([1]; pH 5) | Residual ratio in test piece after thermal acceleration [2] | Time required for reflection-absorbance to become steady / reach peak [3] | Solubility of coupler ([1]; how many times the amounts of all reagents of the basic composition (100 mL water, TOOS, Triton X-100, citrate pH 5.0) can be increased and still give a uniform solution, coupler equimolar to 4-AA)
Cc1c(N)c(=O)n(-c2cccc(S(=O)(=O)O)c2)n1C [CP6, 4-amino-1-(3-sulfophenyl)-2,3-dimethyl-5-pyrazolone] | high solubility | 10 times by volume | – | – | –
Cc1c(N)c(=O)n(-c2ccc(S(=O)(=O)O)cc2)n1C [CP2, 4-amino-1-(4-sulfophenyl)-2,3-dimethyl-5-pyrazolone] | high solubility | 10 times by volume | approximately 100% | about 3 seconds | –
Cc1c(N)c(=O)n(-c2ccccc2)n1C [4-AA, 4-aminoantipyrine, reference compound] | – | – | not more than 70% | 15 s | 5 times by volume
Cc1c(N)c(=O)n(-c2ccc(C(=O)O)cc2)n1C [CP1, 4-amino-1-(4-carboxyphenyl)-2,3-dimethyl-5-pyrazolone] | high solubility | 8 times by volume | – | less than 5 seconds | –
